The subject of one test is MDA-MB-231. Nature of the test: Cell growth inhibition, 4-day proliferation assay, MDA-MB-231. In kind it is cell-based. The following applies: Homo sapiens. As for the experimental part: (§1) The effect of representative Compounds of the Disclosure on cell viability was determined in a 4-day proliferation assay. Cells were maintained in the appropriate culture medium with 100/0 FBS at 37° C. and an atmosphere of 5% CO2. All the cell lines were used within three months of thawing fresh vials.
(§2) In general, cells were seeded in 96-well flat bottom (Corning COSTAR, Corning, N.Y., cat #3595) or white opaque cell culture plates (BD Falcon, cat #353296) at a density of 3,000-10,000 cells/well in 75 μl of culture medium. Compounds were serially diluted in the appropriate medium, and 75 μl of the diluted compounds were added to the appropriate wells of the cell plate. After the addition of compounds, the cells were incubated at 37° C. in an atmosphere of 5% CO2 for 4 days. Cell viability was determined using the CellTiter-Glo® Luminescent Cell Viability Assay Kit (Promega, Madison, Wis.) for leukemia cells and WST (2-(2-methoxy-4-nitrophenyl)-3-(4-nitrophenyl)-5-(2,4-disulfophenyl)-2H-tetrazolium, monosodium salt) Cell Counting-8 Kit (Dojindo Molecular Technologies, Inc., Rockville, Md.) for adherent cells according to the manufacturers' instructions.
(§3) For WST assay (adherent cells), WST-8 reagent was added to each well at a final concentration of 10% (v/v), and then the plates were incubated at 37° C. for 1-2 hours for color development. The absorbance was measured at 450 nm using a SPECTRAmax PLUS plate reader (Molecular Devices, Sunnyvale, Calif.). The readings were normalized to the DMSO-treated cells and the half maximal inhibitory concentration (IC50) was calculated by nonlinear regression (four parameters sigmoid fitted with variable slope, least squares fit, and no constraint) analysis using the GraphPad Prism 5 software (GraphPad Software, La Jolla, Calif.).
(§4) For CellTiter-Glo assay (suspension cells), 100 μl of CellTiter-Glo® Reagent was added to each well, and then the plates were incubated at room temperature for 10-20 minutes. The luminescent signal was measured using a Tecan Infinite M1000 multimode microplate reader (Tecan, Morrisville, N.C.). The readings were normalized to the DMSO-treated cells and the IC50 was calculated by nonlinear regression (four parameters sigmoid fitted with variable slope, least squares fit, and no constraint) analysis using the GraphPad Prism 5 software. See US 2014/0256706.
(§5) For a number of representative compounds in Table 5, their IC50 values in cell growth inhibition activity in the RS4;11 and MOLM-13 human leukemia cell lines and the MDA-MB-231 breast cancer cell line were evaluated using the WST-8 assay described in EXAMPLE 7, with the data shown in Table 7.

A further test has as its system MOLM-13. Nature of the test: Cell growth inhibition, 4-day proliferation assay, MOLM-13. Type of test: cell-based. To be noted: Homo sapiens, MOLM-13, WST-8 assay, Table 7; read-out: Cell growth inhibition (IC50 (nM)) MOLM-13. As for the experimental part:
as §1, §2, §3, §4, §5

Where [1] appears, read: MDA-MB-231, WST-8 assay, Table 7, read-out: Cell growth inhibition (IC50 (nM)) MDA-MB-231.

This passage reports IC50 results from US11046709B2, “Fused 1,4-diazepines as BET bromodomain inhibitors” (THE REGENTS OF THE UNIVERSITY OF MICHIGAN, priority 2017, dated 2021).

Like-named read-outs stand apart in the source and are kept apart here.

For `Cc1c(C#Cc2cnn(CCCC(=O)O)c2)sc2c1C(c1ccc(Cl)cc1)=N[C@@H](C)c1nnc(C)n1-2` [Compound 101, (S)-4-(4-((4-(4-chlorophenyl)-3,6,9-trimethyl-6H-thieno[3,2-f][1,2,4]triazolo[4,3-a][1,4]diazepin-2-yl)ethynyl)-1H-pyrazol-1-yl)butanoic acid], the IC50 (commonly the midpoint of a concentration-inhibition curve) in the test on MDA-MB-231 (setting [1]) worked out at 1030 ± 700 nM.
Consider `Cc1c(C#Cc2cnn(CCC(=O)O)c2)sc2c1C(c1ccc(Cl)cc1)=N[C@@H](C)c1nnc(C)n1-2` [Compound 102, (S)-3-(4-((4-(4-chlorophenyl)-3,6,9-trimethyl-6H-thieno[3,2-f][1,2,4]triazolo[4,3-a][1,4]diazepin-2-yl)ethynyl)-1H-pyrazol-1-yl)propanoic acid], for which the IC50 in the test with MDA-MB-231 (MDA-MB-231, read-out: Cell growth inhibition (IC50 (nM)) MDA-MB-231) came to 3000 ± 300 nM.
With `Cc1c(C#Cc2cccnc2)sc2c1C(c1ccc(Cl)cc1)=N[C@@H](CC(C)C)c1nnc(C)n1-2` [Compound 106, (S)-4-(4-chlorophenyl)-6-isobutyl-3,9-dimethyl-2-(pyridin-3-ylethynyl)-6H-thieno[3,2-f][1,2,4]triazolo[4,3-a][1,4]diazepine], the IC50 turned out to be 393 nM with MOLM-13 and 670 ± 100 nM in the test with MDA-MB-231 (setting [1]).
On the same counts, the results for `Cc1c(C#Cc2ccc(N)nc2)sc2c1C(c1ccc(Cl)cc1)=N[C@@H](CC(C)C)c1nnc(C)n1-2` [Compound 107, (S)-5-((4-(4-chlorophenyl)-6-isobutyl-3,9-dimethyl-6H-thieno[3,2-f][1,2,4]triazolo[4,3-a][1,4]diazepin-2-yl)ethynyl)pyridin-2-amine] are 363 nM and 320 ± 90 nM.
Taken in the same sequence, the figures for `Cc1c(C#Cc2cnn(C)c2)sc2c1C(c1ccc(Cl)cc1)=N[C@@H](CC(C)C)c1nnc(C)n1-2` [Compound 108, (S)-4-(4-chlorophenyl)-6-isobutyl-3,9-dimethyl-2-((1-methyl-1H-pyrazol-4-yl)ethynyl)-6H-thieno[3,2-f][1,2,4]triazolo[4,3-a][1,4]diazepine] were 232 nM and 200 ± 30 nM.
With `Cc1c(C#Cc2ccccn2)sc2c1C(c1ccc(Cl)cc1)=N[C@@H](CC(=O)NC1CCOCC1)c1nnc(C)n1-2` [Compound 133, (S)-2-(4-(4-chlorophenyl)-3,9-dimethyl-2-(pyridin-2-ylethynyl)-6H-thieno[3,2-f][1,2,4]triazolo[4,3-a][1,4]diazepin-6-yl)-N-(tetrahydro-2H-pyran-4-yl)acetamide], the IC50 in the test on MOLM-13 was determined as 8.4 nM; in the test on MDA-MB-231 (setting [1]) it was 338 nM.
Taken in the same sequence, the figures for `Cc1c(C#Cc2ccccn2)sc2c1C(c1ccc(Cl)cc1)=N[C@@H](CC(=O)N1CCC(C)(O)CC1)c1nnc(C)n1-2` [Compound 137, (S)-2-(4-(4-chlorophenyl)-3,9-dimethyl-2-(pyridin-2-ylethynyl)-6H-thieno[3,2-f][1,2,4]triazolo[4,3-a][1,4]diazepin-6-yl)-1-(4-hydroxy-4-methylpiperidin-1-yl)ethan-1-one] were 43200 nM and above 10000 nM.
Taken in the same sequence, the figures for `Cc1c(C#Cc2ccccn2)sc2c1C(c1ccc(Cl)cc1)=N[C@@H](CC(=O)N1CC(C)(O)C1)c1nnc(C)n1-2` [Compound 138, (S)-2-(4-(4-chlorophenyl)-3,9-dimethyl-2-(pyridin-2-ylethynyl)-6H-thieno[3,2-f][1,2,4]triazolo[4,3-a][1,4]diazepin-6-yl)-1-(3-hydroxy-3-methylazetidin-1-yl)ethan-1-one] were 15 to 30 nM and 211 nM.
Taken in the same sequence, the figures for `Cc1nnc(C[C@@H]2N=C(c3ccc(Cl)cc3)c3c(sc(C#Cc4ncccc4F)c3C)-n3c(C)nnc32)o1` [Compound 139, (S)-2-((4-(4-chlorophenyl)-2-((3-fluoropyridin-2-yl)ethynyl)-3,9-dimethyl-6H-thieno[3,2-f][1,2,4]triazolo[4,3-a][1,4]diazepin-6-yl)methyl)-5-methyl-1,3,4-oxadiazole] were 4 to 10 nM and 28.9 nM.
Regarding `Cc1nnc(C[C@@H]2N=C(c3ccc(Cl)cc3)c3c(sc(C#Cc4ccc(F)cn4)c3C)-n3c(C)nnc32)o1` [Compound 140, (S)-2-((4-(4-chlorophenyl)-2-((5-fluoropyridin-2-yl)ethynyl)-3,9-dimethyl-6H-thieno[3,2-f][1,2,4]triazolo[4,3-a][1,4]diazepin-6-yl)methyl)-5-methyl-1,3,4-oxadiazole], the IC50 in the test on MOLM-13 amounted to 11.3 nM; with MDA-MB-231 (setting [1]) it was 52.6 nM.
As for `Cc1nnc(C[C@@H]2N=C(c3ccc(Cl)cc3)c3c(sc(C#Cc4cnn(C)c4)c3C)-n3c(C)nnc32)o1` [Compound 141, (S)-2-((4-(4-chlorophenyl)-3,9-dimethyl-2-((1-methyl-1H-pyrazol-4-yl)ethynyl)-6H-thieno[3,2-f][1,2,4]triazolo[4,3-a][1,4]diazepin-6-yl)methyl)-5-methyl-1,3,4-oxadiazole], the IC50 with MOLM-13 was 1.7 nM; in the test with MDA-MB-231 (setting [1]) it was 31.2 nM.
On the same counts, the results for `Cc1nnc(C[C@@H]2N=C(c3ccc(Cl)cc3)c3c(sc(C#CC4(O)COC4)c3C)-n3c(C)nnc32)o1` [Compound 142, (S)-3-((4-(4-chlorophenyl)-3,9-dimethyl-6-((5-methyl-1,3,4-oxadiazol-2-yl)methyl)-6H-thieno[3,2-f][1,2,4]triazolo[4,3-a][1,4]diazepin-2-yl)ethynyl)oxetan-3-ol] are 95.9 nM and 785 nM.
On the same counts, the results for `Cc1nnc(C[C@@H]2N=C(c3ccc(Cl)cc3)c3c(sc(C#CC4CCCC4)c3C)-n3c(C)nnc32)o1` [Compound 146, (S)-2-((4-(4-chlorophenyl)-2-(cyclopentylethynyl)-3,9-dimethyl-6H-thieno[3,2-f][1,2,4]triazolo[4,3-a][1,4]diazepin-6-yl)methyl)-5-methyl-1,3,4-oxadiazole] are 17.4 nM and 22.5 nM.
On the same counts, the results for `Cc1nnc(C[C@@H]2N=C(c3ccc(Cl)cc3)c3c(sc(C#CC(C)(C)C)c3C)-n3c(C)nnc32)o1` [Compound 147, (S)-2-((4-(4-chlorophenyl)-2-(3,3-dimethylbut-1-yn-1-yl)-3,9-dimethyl-6H-thieno[3,2-f][1,2,4]triazolo[4,3-a][1,4]diazepin-6-yl)methyl)-5-methyl-1,3,4-oxadiazole] are 7.4 nM and 20.1 nM.
For `Cc1c(C#Cc2cncn2C)sc2c1C(c1ccc(Cl)cc1)=N[C@@H](CC(=O)N1CCN(C)CC1)c1nnc(C)n1-2` [Compound 165, (S)-2-(4-(4-chlorophenyl)-3,9-dimethyl-2-((1-methyl-1H-imidazol-5-yl)ethynyl)-6H-thieno[3,2-f][1,2,4]triazolo[4,3-a][1,4]diazepin-6-yl)-1-(4-methylpiperazin-1-yl)ethan-1-one], the IC50 in the test with MOLM-13 was found to be 36.4 nM.
Regarding `Cc1c(C#Cc2ccccn2)sc2c1C(c1ccc(Cl)cc1)=N[C@@H](CC(=O)N1CC3(CNC3)C1)c1nnc(C)n1-2` [Compound 170, (S)-2-(4-(4-chlorophenyl)-3,9-dimethyl-2-(pyridin-2-ylethynyl)-6H-thieno[3,2-f][1,2,4]triazolo[4,3-a][1,4]diazepin-6-yl)-1-(2,6-diazaspiro[3.3]heptan-2-yl)ethan-1-one], the IC50 in the test with MOLM-13 worked out at 115 nM.
The same measure, in the same setting: the figure for `Cc1c(C#Cc2ccccn2)sc2c1C(c1ccc(Cl)cc1)=N[C@@H](CC(=O)N1CCC(F)(F)C1)c1nnc(C)n1-2` [Compound 171, (S)-2-(4-(4-chlorophenyl)-3,9-dimethyl-2-(pyridin-2-ylethynyl)-6H-thieno[3,2-f][1,2,4]triazolo[4,3-a][1,4]diazepin-6-yl)-1-(3,3-difluoropyrrolidin-1-yl)ethan-1-one] is 151 nM.
Take `Cc1c(C#Cc2ccccn2)sc2c1C(c1ccc(Cl)cc1)=N[C@@H](CC(=O)N1CCCC(F)(F)C1)c1nnc(C)n1-2` [Compound 172, (S)-2-(4-(4-chlorophenyl)-3,9-dimethyl-2-(pyridin-2-ylethynyl)-6H-thieno[3,2-f][1,2,4]triazolo[4,3-a][1,4]diazepin-6-yl)-1-(3,3-difluoropiperidin-1-yl)ethan-1-one]: in the test on MOLM-13, the IC50 was found to be 71 nM.
In the case of `Cc1c(C#Cc2ccccn2)sc2c1C(c1ccc(Cl)cc1)=N[C@@H](CC(=O)N1CCC(F)CC1)c1nnc(C)n1-2` [Compound 173, (S)-2-(4-(4-chlorophenyl)-3,9-dimethyl-2-(pyridin-2-ylethynyl)-6H-thieno[3,2-f][1,2,4]triazolo[4,3-a][1,4]diazepin-6-yl)-1-(4-fluoropiperidin-1-yl)ethan-1-one], the IC50 in the test on MDA-MB-231 (setting [1]) was determined as 9.67 nM.
